Assay results reported in ChEMBL document CHEMBL3832761, “MMV Pathogen Box Bioactivity Data” (2017).
Values after ≈ are worked out from the molar mass of the structure shown.

What was measured:
Plasmodium falciparum [1] = test: Antimalarial activity: Asexual Blood Stage Plasmodium falciparum 3D7 IC50 (uM); type: functional, organism-based
HepG2 [2] = test: HepG2 inhibition at 10 uM (%) Cytotoxicity; type: functional; details: Homo sapiens
Plasmodium falciparum [3] = test: Antimalarial activity: Gametocytes Plasmodium falciparum NF54 Gametocytes Stage V IC50 (uM); type: functional, organism-based
Plasmodium falciparum [4] = test: Antimalarial activity: Asexual Blood Stage Plasmodium falciparum Dd2 IC50 (uM); type: functional, organism-based
Plasmodium berghei [5] = test: Antimalarial activity: Liver Stage Plasmodium berghei sporozoite Luciferase assay IC50 (uM); type: functional, organism-based
Plasmodium falciparum [6] = test: Antimalarial activity: Asexual Blood Stage Plasmodium falciparum W2 IC50 (uM); type: functional, organism-based
HepG2 [7] = test: HepG2 CC50 (uM) Cytotoxicity; type: functional; details: Homo sapiens
Plasmodium falciparum [8] = test: Antimalarial activity: Gametocytes Plasmodium falciparum NF54 Gametocytes Stage V: inhibition at 10 uM (%); type: functional
HepG2 [9] = test: Cytotoxicity data HepG2 CC20 (uM); type: functional
Plasmodium berghei [10] = test: Antimalarial activity: Liver Stage Plasmodium berghei sporozoite Luciferase assay: inhibition at 10 uM (%); type: functional
[11] = system: Mycobacterium tuberculosis; test: AntiMycobacterium tuberculosis activity 2-week Alamar Blue 7H9/ADC/Tw MIC (uM); type: functional; details: 336 h
[12] = system: Mycobacterium tuberculosis; test: AntiMycobacterium tuberculosis activity 1-week 7H9/DPPC/cholesterol/BSA/Tx MIC (uM); type: functional; details: 168 h
[13] = system: Mycobacterium tuberculosis; test: AntiMycobacterium tuberculosis activity 2-week 7H9/glucose/BSA/Tx MIC (uM); type: functional; details: 336 h
[14] = system: Mycobacterium tuberculosis; test: AntiMycobacterium tuberculosis activity Replicating form: Average MIC90 (uM); type: functional
[15] = system: Mycobacterium tuberculosis; test: AntiMycobacterium tuberculosis activity 2-week GAST/Fe MIC (uM); type: functional; details: 336 h
[16] = system: Mycobacterium tuberculosis; test: AntiMycobacterium tuberculosis activity day 21 MIC99 in 7H9/2.5mM butyrate/pH6/0.1mM nitrite MIC99 (uM); type: functional; details: 504 h
[17] = system: Mycobacterium tuberculosis; test: AntiMycobacterium tuberculosis activity Non-Replicating form: Average MIC90 (uM); type: functional
[18] = system: Mycobacterium tuberculosis; test: AntiMycobacterium tuberculosis activity 2-week Alamar Blue 7H9/cholesterol/BSA/Tx MIC (uM); type: functional; details: 336 h
[19] = system: Mycobacterium tuberculosis; test: AntiMycobacterium tuberculosis activity 2-week 7H9/ADC/Tw MIC (uM); type: functional; details: 336 h
[20] = system: Mycobacterium tuberculosis; test: (§1) AntiMycobacterium tuberculosis activity day 10 in 7H9/2.5mM butyrate/pH6/0.1mM nitrite MIC90 (uM); type: functional; details: 240 h
[21] = system: Mycobacterium tuberculosis; test: AntiMycobacterium tuberculosis activity 1-week GAST/Fe MIC (uM); type: functional; details: 168 h
[22] = system: Mycobacterium tuberculosis; test: AntiMycobacterium tuberculosis activity 1-week 7H9/cholesterol/BSA/Tx MIC (uM); type: functional; details: 168 h
[23] = system: Mycobacterium tuberculosis; test: AntiMycobacterium tuberculosis activity day 21 in 7H9/2.5mM butyrate/pH6/0.1mM nitrite MIC90 (uM); type: functional; details: 504 h
[24] = system: Mycobacterium tuberculosis; test: AntiMycobacterium tuberculosis activity 2-week 7H9/DPPC/cholesterol/BSA/Tx MIC (uM); type: functional; details: 336 h
[25] = system: Mycobacterium tuberculosis; test: AntiMycobacterium tuberculosis activity 1-week 7H9/glucose/BSA/Tx MIC (uM); type: functional; details: 168 h
[26] = system: Mycobacterium tuberculosis; test: as §1; type: functional; details: 240 h; remark: listed apart in the source
HepG2 [27] = test: HepG2 galactose CC50 (uM) Cytotoxicity; type: functional
HepG2 [28] = test: HepG2 glucose CC50 (uM) Cytotoxicity; type: functional
[29] = system: Mycobacterium tuberculosis; test: AntiMycobacterium tuberculosis activity 1-week 7H9/ADC/Tw MIC (uM); type: functional; details: 168 h

Q: With `O=C(Nc1nc(-c2ccccn2)cs1)C1CC1c1ccccc1F` (centres undefined) as the molecule, how does the IC50 (Plasmodium falciparum [1]) read?
A: > 2000 nM

Q: What about the inhibition at 10 µM (HepG2 [2]) of the same molecule?
A: 25%

Q: And the IC50 (Plasmodium falciparum [3])?
A: 520 nM

Q: What about the IC50 (Plasmodium falciparum [4]) of the same molecule?
A: > 2000 nM

Q: Which IC50 (Plasmodium falciparum [1]) does the source give for `CCN(CC)S(=O)(=O)c1ccc(Cl)c(C(=O)Nc2ccc3nc(C)sc3c2)c1` here?
A: 500 nM

Q: What about the IC50 (Plasmodium berghei [5]) of the same molecule?
A: 1310 nM

Q: And the IC50 (Plasmodium falciparum [3])?
A: 3910 nM

Q: And the IC50 (Plasmodium falciparum [6])?
A: 590 nM

Q: What about the CC50 (HepG2 [7]) of the same molecule?
A: > 10000 nM

Q: What about the Inhibition (Plasmodium falciparum [8]) of the same molecule?
A: 86%

Q: And the IC50 (Plasmodium falciparum [4])?
A: 550 nM

Q: And the CC20 (HepG2 [9])?
A: 10000 nM

Q: And the Inhibition (Plasmodium berghei [10])?
A: 100%

Q: For `N#Cc1ccc(-c2cnc(N)c(-c3ccc(C(N)=O)cc3)n2)cc1`, which IC50 (Plasmodium falciparum [1]) is on record?
A: 90 nM

Q: What about the IC50 (Plasmodium berghei [5]) of the same molecule?
A: 280 nM

Q: And the IC50 (Plasmodium falciparum [3])?
A: 140 nM

Q: And the IC50 (Plasmodium falciparum [6])?
A: 210 nM

Q: And the CC50 (HepG2 [7])?
A: > 10000 nM

Q: And the Inhibition (Plasmodium falciparum [8])?
A: 87%

Q: And the IC50 (Plasmodium falciparum [4])?
A: 110 nM

Q: What about the CC20 (HepG2 [9]) of the same molecule?
A: 12000 nM

Q: And the Inhibition (Plasmodium berghei [10])?
A: 100%

Q: Which IC50 (Plasmodium falciparum [1]) does the source give for `CCCn1c(NC(=O)c2ccc3ccccc3n2)nc2ccccc21` here?
A: > 2000 nM

Q: And the inhibition at 10 µM (HepG2 [2])?
A: 24%

Q: And the IC50 (Plasmodium falciparum [3])?
A: 560 nM

Q: What about the IC50 (Plasmodium falciparum [4]) of the same molecule?
A: > 2000 nM

Q: Which results are given for `CNC(=O)CNc1nc(-c2ccccn2)nc2scc(-c3ccccc3)c12`?
A: IC50 (Plasmodium falciparum [1]): > 2000 nM; inhibition at 10 µM (HepG2 [2]): 4%; IC50 (Plasmodium falciparum [3]): 840 nM; IC50 (Plasmodium falciparum [4]): > 2000 nM

Q: Which results are given for `Cc1ccc2c(c1C)NC(=O)C21NN=C(c2ccccc2)S1` (centres undefined)?
A: IC50 (Plasmodium falciparum [1]): 1130 nM; IC50 (Plasmodium berghei [5]): 880 nM; IC50 (Plasmodium falciparum [3]): 900 nM; IC50 (Plasmodium falciparum [6]): 890 nM; CC50 (HepG2 [7]): > 7500 nM; Inhibition (Plasmodium falciparum [8]): 78%; IC50 (Plasmodium falciparum [4]): 2130 nM; CC20 (HepG2 [9]): >80000 nM; Inhibition (Plasmodium berghei [10]): 100%

Q: Which results are given for `COc1ccc(-c2cnc3ccc(N4CCCC4)nn23)cc1OC`?
A: IC50 (Plasmodium falciparum [1]): 700 nM; IC50 (Plasmodium berghei [5]): 630 nM; IC50 (Plasmodium falciparum [3]): 410 nM; IC50 (Plasmodium falciparum [6]): 860 nM; CC50 (HepG2 [7]): > 10000 nM; Inhibition (Plasmodium falciparum [8]): 91%; IC50 (Plasmodium falciparum [4]): 670 nM; CC20 (HepG2 [9]): 4950 nM; Inhibition (Plasmodium berghei [10]): 100%

Q: With `COc1ccc(-c2cnc3ccc(NCc4ccc(S(N)(=O)=O)cc4)nn23)cn1` as the molecule, how does the IC50 (Plasmodium falciparum [1]) read?
A: 490 nM

Q: What about the IC50 (Plasmodium berghei [5]) of the same molecule?
A: 6800 nM

Q: What about the IC50 (Plasmodium falciparum [3]) of the same molecule?
A: 1030 nM

Q: And the IC50 (Plasmodium falciparum [6])?
A: 710 nM

Q: And the CC50 (HepG2 [7])?
A: > 10000 nM

Q: And the Inhibition (Plasmodium falciparum [8])?
A: 82%

Q: And the IC50 (Plasmodium falciparum [4])?
A: 810 nM

Q: What about the CC20 (HepG2 [9]) of the same molecule?
A: 3290 nM

Q: What about the Inhibition (Plasmodium berghei [10]) of the same molecule?
A: 100%

Q: What does the source list for `COc1cc(-c2cc(-c3ccc(S(C)(=O)=O)cc3)cnc2N)ccc1O`?
A: IC50 (Plasmodium falciparum [1]): 100 nM; IC50 (Plasmodium berghei [5]): 2520 nM; IC50 (Plasmodium falciparum [3]): 70 nM; IC50 (Plasmodium falciparum [6]): 100 nM; CC50 (HepG2 [7]): > 10000 nM; Inhibition (Plasmodium falciparum [8]): 94%; IC50 (Plasmodium falciparum [4]): 140 nM; CC20 (HepG2 [9]): 1550 nM; Inhibition (Plasmodium berghei [10]): 100%

Q: What does the source list for `Cc1ccc(NC(=O)c2nc[nH]c2C(=O)Nc2nc3ccccc3[nH]2)c(C)c1`?
A: IC50 (Plasmodium falciparum [1]): 360 nM; IC50 (Plasmodium berghei [5]): > 10000 nM; IC50 (Plasmodium falciparum [3]): > 8300 nM; IC50 (Plasmodium falciparum [6]): 320 nM; CC50 (HepG2 [7]): > 10000 nM; Inhibition (Plasmodium falciparum [8]): 88%; IC50 (Plasmodium falciparum [4]): 230 nM; CC20 (HepG2 [9]): 8430 nM; Inhibition (Plasmodium berghei [10]): 99%

Q: For `CCNC(=O)C(C)Nc1nc(-c2cccnc2)nc2sc(C)c(C)c12` (centres undefined), which IC50 (Plasmodium falciparum [1]) is on record?
A: > 2000 nM

Q: And the inhibition at 10 µM (HepG2 [2])?
A: 0%

Q: What about the IC50 (Plasmodium falciparum [3]) of the same molecule?
A: 610 nM

Q: And the IC50 (Plasmodium falciparum [4])?
A: > 2000 nM

Q: `CCOC(=O)c1c(NC(=O)c2c(F)c(F)c(F)c(F)c2F)sc(C(N)=O)c1C` was tested. Which MIC [11] did it give?
A: 0.39 µM (≈ 0.165 µg/mL)

Q: And the MIC [12]?
A: 0.05 µM (≈ 0.0211 µg/mL)

Q: What about the MIC [13] of the same molecule?
A: 0.39 µM (≈ 0.165 µg/mL)

Q: What about the MIC90 [14] of the same molecule?
A: < 0.25 µM

Q: And the CC50 (HepG2 [7])?
A: 4200 nM

Q: And the MIC [15]?
A: 0.1 µM (≈ 0.0422 µg/mL)

Q: What about the MIC [16] of the same molecule?
A: > 50 µM

Q: What about the MIC90 [17] of the same molecule?
A: 0.23 µM (≈ 0.0971 µg/mL)

Q: And the MIC [18]?
A: 0.39 µM (≈ 0.165 µg/mL)

Q: And the MIC [19]?
A: 0.39 µM (≈ 0.165 µg/mL)

Q: What about the MIC90 [20] of the same molecule?
A: > 50 µM

Q: And the MIC [21]?
A: 0.07 µM (≈ 0.0296 µg/mL)

Q: What about the MIC [22] of the same molecule?
A: 0.07 µM (≈ 0.0296 µg/mL)

Q: What about the MIC90 [23] of the same molecule?
A: 6.25 µM (≈ 2.64 µg/mL)

Q: And the MIC [24]?
A: 0.3 µM (≈ 0.127 µg/mL)

Q: And the MIC [25]?
A: 0.1 µM (≈ 0.0422 µg/mL)

Q: And the MIC90 [26]?
A: 0.78 µM (≈ 0.329 µg/mL)

Q: What about the CC50 (HepG2 [27]) of the same molecule?
A: > 50000 nM

Q: And the CC50 (HepG2 [27]; Homo sapiens, HepG2)?
A: 48800 nM

Q: What about the CC50 (HepG2 [28]) of the same molecule?
A: 23500 nM

Q: What about the CC50 (HepG2 [28]; Homo sapiens, HepG2) of the same molecule?
A: 31700 nM

Q: What about the MIC [29] of the same molecule?
A: 0.1 µM (≈ 0.0422 µg/mL)

Q: For `CCc1ccc(C(NCc2nc(N)nc(N(C)C)n2)C(C)C)cc1` (centres undefined), which IC50 (Plasmodium falciparum [1]) is on record?
A: > 2000 nM

Q: What about the IC50 (Plasmodium falciparum [3]) of the same molecule?
A: 80 nM

Q: And the IC50 (Plasmodium falciparum [4])?
A: > 2000 nM
